From PMC11993615, “Design, synthesis and optimization of TarO inhibitors as multifunctional antibiotics against Methicillin-resistant Staphylococcus aureus” (npj Antimicrobials and Resistance, 2025)

Assays:
[1] = Cytotoxicity assay (Sulforhodamine B); type: cell-based; details: human
Experimental: The cytotoxicity was detected by Sulforhodamine B method. The human pancreatic cancer cell line Capan-1, human colon cancer cell line HCT-116 and human lung adenocarcinoma cell line NCI-H1373 were purchased from American Type Culture Collection (ATCC; Manassas, VA) and inoculated into 96-well plates in triplicate. The cells were treated with different concentrations of compounds in humidified incubator containing 5% CO2 for 72 h when they reached 70%-80% confluence. Vincristine was added as a positive control. Then, SRB staining agent was added and microplate analyzer was used to read the absorbance at 450 nm wavelength. The cytotoxicity of each compound is expressed as the concentration of the compound that reduces cell viability to 50% (IC50). The optical density (OD) at a wavelength of 450 nm was measured using an SpectraMax 190 Microplate Reader (Molecular Devices; USA). The IC50 value was calculated by the Logit method using Graphpad Prism 9.1.

USA400 MW2 [2] = experiment: MIC determination, broth microdilution; details: Staphylococcus aureus
USA300 LAC [3] = experiment: MIC determination, broth microdilution; details: Staphylococcus aureus
USA400 MW2 [4] = experiment: Checkerboard MIC assay with oxacillin; type: cell-based, Staphylococcus aureus; details: for MIC of β-lactam, combined: USA400 MW2
Experimental: (§1) In the checkerboard assay, concentrations of antibiotics, oxacillin and imipenem, and TarO inhibitors were simultaneously varied across columns and the rows, respectively. […] The range of each compound chosen for the checkerboard assay was according to their MIC value. […] For each clear well observed on the checkerboard MIC plate, the fractional inhibitory concentration index (FICI) was calculated as follows: FICI = FIC (inhibitor) + FIC (antibiotic) = MIC inhibitor in combination/ MIC inhibitor alone + MIC antibiotic in combination/MIC antibiotic alone. FIC = Fractional Inhibitory Concentration. A FICI value of < 0.5 indicates synergy, a value between 0.5 and 2 indicates additivity or indifference, and a value > 2 indicates antagonism.

USA300 LAC [5] = experiment: Checkerboard MIC assay with oxacillin; type: cell-based, Staphylococcus aureus; details: USA300 LAC/oxacillin
Experimental: as §1

TarO = TarO (Staphylococcus aureus, UniProt Q2G060); type: cell-based; details: relative inhibition rate against the wild-type strain, OD600 at 20 h; n.a. = IC50 cannot be calculated within the test range
[6] = test system: S.aureus USA300 LAC biofilm; experiment: Static biofilm inhibition assay (crystal violet); type: cell-based, Staphylococcus aureus; details: USA300 LAC, 24 h static culture
HS663 [7] = experiment: Checkerboard MIC assay with imipenem; type: cell-based, Staphylococcus aureus; details: for MIC of β-lactam, combined: HS663
Experimental: as §1

[8] = Preliminary liver microsomal stability testing; type: in vitro ADME, Mouse
Experimental: 6. Supplementary Ta b l e 3: Preliminary liver microsomal stability testing of Ta r O
Compounds Species T1/2 Clint In Vitro MF […]
a MF: metabolic bioavailability.
Microsomes in 0.1 M TRIS buffer pH 7.4 (final concentration 0.33 mg/mL), co- factor MgCl2 (final concentration 5 mM) and tested compound (final concentration 0.1 μM, co-solvent 0.01% DMSO and 0.005% Bovin serum albumin BSA) were incubated at 37°C for 10 min. The reaction was started by the addition of NADPH (final concentration 1 mM). Aliquots were sampled at 0, 5, 15, 30 and 60 min respectively and methanol (cold in wet ice) was added to terminate the reaction.
After centrifugation (4000rpm,5 min), samples were then analyzed by LC- MS/MS.

HS663 [9] = experiment: MIC determination, broth microdilution; details: Staphylococcus aureus
[10] = USA400 MW2/oxacillin, at maximum sensitization concentration
[11] = USA400 MW2/oxacillin, test range 0.03–32 μg/mL
[12] = at maximum sensitization concentration
[13] = at minimum sensitization concentration
[14] = HS663/imipenem, at maximum sensitization concentration
[15] = HS663/imipenem, at minimum sensitization concentration
[16] = HS663/imipenem, test range 0.03–32 μg/mL

With COc1cc(C(F)(F)F)cc([C@H]2OC(=O)N(C(=O)CCn3ccc(=O)c4cccnc43)[C@H]2C)n1 [Compound 18b] the IC50 at 72 h ([1]; Capan-1 cells (human pancreatic cancer cell line), Capan-1, 72 h) was greater than 20 µM, the IC50 at 72 h ([1]; HCT-116 cells (human colon cancer cell line), HCT-116, 72 h) was greater than 20 µM and the IC50 at 72 h ([1]; NCI-H1373 cells (human lung adenocarcinoma cell line), NCI-H1373, 72 h) was greater than 20 µM. It also gave an MIC (USA400 MW2 [2]) greater than 256 µg/mL, an MIC (USA300 LAC [3]) greater than 256 µg/mL and an FICI (USA400 MW2 [4]; [10]) of less than 0.16. For the same compound, the Sensitization fold (USA400 MW2 [4]; [10]) was 32, the Sensitization fold (USA400 MW2 [4]; USA400 MW2/oxacillin, at minimum sensitization concentration) was 2 and the Maximum sensitization concentration (USA400 MW2 [4]; [11]) was 32 µg/mL. The Minimum sensitization concentration (USA400 MW2 [4]; [11]) was 0.06 µg/mL, the “MIC of β-lactam, combined” value (USA400 MW2 [4]; oxacillin with TarO inhibitor at maximum sensitization concentration) was 0.5 µg/mL and the “MIC of β-lactam, combined” value (USA400 MW2 [4]; oxacillin with TarO inhibitor at minimum sensitization concentration) was 8 µg/mL. For the same compound, the FICI (USA300 LAC [5]; [12]) was less than 0.19, the Sensitization fold (USA300 LAC [5]; [12]) was 16 and the FICI (USA300 LAC [5]; [13]) was less than 0.26. It also gave a Sensitization fold (USA300 LAC [5]; [13]) of 4, a Minimum sensitization concentration (USA300 LAC [5]; test range 0.03–32 μg/mL) of 0.25 µg/mL and an IC50 (TarO) of 12.3 µM. For the same compound, the “concentration (as low as) significantly reducing biofilm formation” value [6] was 8 µg/mL, the FICI (HS663 [7]; [14]) was less than 0.08 and the Sensitization fold (HS663 [7]; [14]) was 16. For the same compound, the FICI (HS663 [7]; [15]) was less than 0.51, the Sensitization fold (HS663 [7]; [15]) was 2 and the Maximum sensitization concentration (HS663 [7]; [16]) was 2 µg/mL. For the same compound, the Minimum sensitization concentration (HS663 [7]; [16]) was 0.12 µg/mL, the “MIC of β-lactam, combined” value (HS663 [7]; imipenem with TarO inhibitor at maximum sensitization concentration) was 4 µg/mL and the “MIC of β-lactam, combined” value (HS663 [7]; imipenem with TarO inhibitor at minimum sensitization concentration) was 32 µg/mL. For the same compound, the “Clint In Vitro” value ([8]; Mouse liver microsomes) was 1267 mL/min/gprot, the “Comments (metabolic stability)” value ([8]; Mouse liver microsomes) was “poor” and the half-life at 0.1 μM ([8]; pH 7.4, Mouse liver microsomes 0.33 mg/mL, 0.1 μM compound) was 1.66 min. The MIC (HS663 [9]) was greater than 256 µg/mL.
